Measurements published in patent US6984664B2, “Tertiary amino compounds having opioid receptor affinity” (Euro-Celtique, S.A., priority 1999, dated 2006).

Columns and labels:
Assay type in all cases: binding
[1] = molecular target: Mu opioid receptor (Homo sapiens, UniProt P35372); assay: Affinity at the μ receptor ([35S]GTPγS membrane assay); details: opioid receptor membranes, 30 min room temperature, read-out: calc Ki (nM) μ
Description: (§1) Affinity at the μ, k and δ receptors for preferred compounds was obtained according to the following assays:
(§2) Mu, kappa or delta opioid receptor membrane solution was prepared by sequentially adding final concentrations of 0.075 μg/μl of the desired membrane protein, 10 μg/ml saponin, 3 μM GDP and 0.20 nM [^35S]GTPγS to binding buffer (100 mM NaCl, 10 mM MgCl2, 20 mM HEPES, pH 7.4) on ice. The prepared membrane solution (190 μl/well) was transferred to 96-shallow well polypropylene plates containing 10 μl of 20× concentrated stock solutions of agonist prepared in DMSO. Plates were incubated for 30 min at room temperature with shaking. Reactions were terminated by rapid filtration onto 96-well Unifilter GF/B filter plates (Packard) using a 96-well tissue harvester (Brandel) and followed by three filtration washes with 200 μl ice-cold binding buffer (10 mM NaH2PO4, 10 mM Na2HPO4, pH 7.4). Filter plates were subsequently dried at 50° C. for 2–3 hours. Fifty μl/well scintillation cocktail (MicroScint20, Packard) was added and plates were counted in a Packard Top-Count for 1 min/well.
(§3) Data were analyzed using the curve fitting functions in GraphPad PRISM™, v.

[2] = molecular target: kappa opioid receptor (Homo sapiens, UniProt P41145); assay: Affinity at the k receptor ([35S]GTPγS membrane assay); details: opioid receptor membranes, 30 min room temperature, read-out: calc Ki (nM) k
Description: as §1, §2, §3

[3] = molecular target: delta opioid receptor (Homo sapiens, UniProt P41143); assay: Affinity at the δ receptor ([35S]GTPγS membrane assay); details: opioid receptor membranes, 30 min room temperature, read-out: calc Ki (nM) δ2
Description: as §1, §2, §3

Sequence of Mu opioid receptor (P35372 whole entry): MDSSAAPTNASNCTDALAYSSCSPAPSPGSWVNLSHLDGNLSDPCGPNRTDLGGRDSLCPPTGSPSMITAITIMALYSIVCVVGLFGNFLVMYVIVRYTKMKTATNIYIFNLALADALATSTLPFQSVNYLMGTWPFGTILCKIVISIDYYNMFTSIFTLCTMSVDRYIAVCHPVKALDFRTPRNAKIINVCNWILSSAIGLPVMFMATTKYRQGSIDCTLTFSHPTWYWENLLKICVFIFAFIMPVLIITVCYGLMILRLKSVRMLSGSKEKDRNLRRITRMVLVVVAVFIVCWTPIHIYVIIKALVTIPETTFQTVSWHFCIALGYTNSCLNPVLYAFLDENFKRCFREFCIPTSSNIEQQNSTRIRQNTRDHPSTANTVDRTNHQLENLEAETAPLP
Sequence of delta opioid receptor (P41143 whole entry): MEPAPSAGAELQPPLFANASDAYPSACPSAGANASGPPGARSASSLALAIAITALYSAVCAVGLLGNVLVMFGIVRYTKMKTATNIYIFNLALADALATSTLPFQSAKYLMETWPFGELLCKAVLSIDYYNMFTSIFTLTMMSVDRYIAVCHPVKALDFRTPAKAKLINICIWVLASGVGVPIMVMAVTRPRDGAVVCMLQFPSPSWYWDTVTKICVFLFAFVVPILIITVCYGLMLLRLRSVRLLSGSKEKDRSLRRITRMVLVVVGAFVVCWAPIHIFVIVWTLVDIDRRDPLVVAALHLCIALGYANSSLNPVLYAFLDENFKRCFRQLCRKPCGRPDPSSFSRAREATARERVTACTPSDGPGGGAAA
Sequence of kappa opioid receptor (P41145 whole entry): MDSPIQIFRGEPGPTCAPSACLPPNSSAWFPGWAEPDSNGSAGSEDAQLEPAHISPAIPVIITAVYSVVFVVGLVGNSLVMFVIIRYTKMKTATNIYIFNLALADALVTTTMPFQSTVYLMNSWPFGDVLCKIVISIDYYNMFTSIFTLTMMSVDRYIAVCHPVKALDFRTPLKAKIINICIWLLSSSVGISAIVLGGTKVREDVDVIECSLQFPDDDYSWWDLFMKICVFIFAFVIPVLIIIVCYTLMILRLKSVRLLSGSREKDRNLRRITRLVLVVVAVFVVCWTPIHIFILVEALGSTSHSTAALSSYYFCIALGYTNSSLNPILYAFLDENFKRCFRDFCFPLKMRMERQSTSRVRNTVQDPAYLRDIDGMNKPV

Structure (SMILES): CCCCN(CCCC)CCN(Cc1ccccc1)C(=O)Cc1ccccc1 [1-[1-benzyl-1-(2-phenyl-1-oxo-ethyl)-amino]-2-dibutylamino-ethyl]
- Ki [1]: 40 nM
- Ki [2]: 3500 nM
- Ki [3]: > 10000 nM
